Assay results reported in patent US6440901B1, “Calcium chloride fruit blossom thinning agent” (priority 2000, dated 2002).

Key:
[1] = system: “WVC” Fuji Apples; settings: for Mean Fruit Area per Limb: East Wenatchee, airblast spray at bloom; for Mean Fruit per 100 Clusters: fruit set
Method: A first field trial to test the effects of calcium chloride as a bloom thinning agent was performed in an orchard located in East Wenatchee, Washington, by the Washington Tree Fruit Research Commission on a commercial block of a Fuji apple cultivar of the variety “WVC.” Two areas of the block's apples were each treated with two alternative chemical thinning compounds. Calcium chloride was used in the first area. […] A third area of the apple block was utilized as a control group and treated with water. The treatments were all performed with conventional test methodologies and procedures.
Other than the application of the thinning compounds, all three blocks were managed without differentiation. All treatments were applied utilizing standard airblast sprayers and spreader-stickers as appropriate. The experiments were in a randomized complete block design with 2 to 4 replications. […] Results of this trial are listed in TABLE 1 and shown in the graphs of FIGS. 1 and 3.

[2] = system: “Lutz” Red Delicious Apples; settings: for Mean Fruit Area per Limb: Azwell; for Mean Fruit per 100 Clusters: fruit set
Method: A second field trial to test the effects of calcium chloride as a bloom thinning agent was performed at an orchard located in Azwell, Washington, by the Washington Tree Fruit Research Commission on a commercial block of a Red Delicious apple cultivar of the variety “Lutz.” Three areas of the block's apples were each treated with one of three alternative chemical thinning compounds. […] Calcium chloride was used in the second area and “Crocker's” lime and sulfur was used in the third area. A fourth area of the apple block was utilized as a control group and treated with water as a control. The treatments were all performed with conventional test methodologies and procedures. Other than the application of the thinning compounds, all four blocks were managed without differentiation.

[3] = system: apples; test: Overall observations of both field trials (damage, thinning, fruit L/D); type: in vivo, apple
Method: A series of field trials comparing the calcium chloride composition of the present invention to other alternative chemical thinners were performed to verify efficacy as a bloom thinner. The trials followed labeling recommendations and best management practices for all applications. Two of these trials are discussed as follows, but are not intended to specifically limit the invention: […]

[Ca+2].[Cl-].[Cl-] [CaCl, calcium chloride]
% Flower Clusters Blanked [1]: 40.0% | % Flower Clusters Doubled [1]: 12.5% | % Flower Clusters Singled [1]: 45.5% | % Flower Clusters Tripled [1]: 2.0% | % Flower Clusters w/4+ Fruit [1]: 0.1% | Mean Fruit Area per Limb [1]: 5.0 cm^2 | Mean Fruit per 100 Clusters [1]: 79 | % Flower Clusters Blanked [2]: 41.7% | % Flower Clusters Doubled [2]: 12.7% | % Flower Clusters Singled [2]: 44.4% | % Flower Clusters Tripled [2]: 1.0% | % Flower Clusters w/4+ Fruit [2]: 0.2% | Mean Fruit Area per Limb [2]: 2.6 cm^2 | Mean Fruit per 100 Clusters [2]: 73 | impact on average fruit length over diameter (L/D) ratio ([3]; harvested fruit): minimally impacted | difference in bloom thinning between treatments ([3]; with feedback on hand thinning time per tree, ATS versus calcium chloride): no consistent, significant differences between ATS and calcium chloride

ammonium thiosulfate [ATS, reference compound]
% Flower Clusters Blanked [1]: 38.2% | % Flower Clusters Doubled [1]: 11.9% | % Flower Clusters Singled [1]: 47.4% | % Flower Clusters Tripled [1]: 1.9% | % Flower Clusters w/4+ Fruit [1]: 0.7% | Mean Fruit Area per Limb [1]: 5.8 cm^2 | Mean Fruit per 100 Clusters [1]: 84 | % Flower Clusters Blanked [2]: 47.0% | % Flower Clusters Doubled [2]: 12.8% | % Flower Clusters Singled [2]: 38.8% | % Flower Clusters Tripled [2]: 1.5% | % Flower Clusters w/4+ Fruit [2]: 0.0% | Mean Fruit Area per Limb [2]: 2.7 cm^2 | Mean Fruit per 100 Clusters [2]: 69
